Reference: patent publication US8143484B2, “Method for regulating agrobacterium-mediated transformation” (priority 2008, dated 2012)

Legend:
[1] = tested on: P898012 sorghum immature embryos; experiment: Phenolic compound production by infected, cultured sorghum immature embryos (visual exudates); type: cell-based; details: infected and cultured immature zygotic embryos of sorghum (FIG. 3)
Description: Transformation was carried out in 6 distinctive but sequential phases. Freshly isolated embryos of P898012 or GS3 were mixed together or separated into 1.5 mL of medium 700 either lacking or containing […] acetosyringone. The concentration of A. tumefaciens harbouring the vector PHP15303 (FIG. 5) in the suspension was adjusted to 0.857×10^9 cfu/mL [Optical Density (OD) approximately 0.6 at 550 nm]. The infection suspension was vortexed gently for 15 seconds, poured into 1 cm-diameter microplates and vacuumed for 5 minutes with gentle rocking for mixing. • 2. The Agrobacterium suspension was then aspirated and the embryos plated on co-cultivation medium 710B either lacking or containing […] acetosyringone for 3 days (co-cultivation) and cultured in the dark at 25° C. • 3. […]
Cultured immature zygotic embryos of the sorghum genotype P898012 produce phenolic compounds which can be visually identified as black/dark brown exudates within the proximity of the embryos on tissue culture medium (FIG. 2 (I) and FIG. 1 (J)). When these immature embryos are infected with A. tumefaciens, higher quantities of these phenolic compounds are produced, especially when the medium on which the embryos are cultured is not supplemented with the synthetic acetosyringone (contrast FIGS. 2 (A & B) vs. FIGS. 2 (D & E)).

[2] = tested on: lillies; details: addition of acetosyringone; cited from earlier work
[3] = tested on: wheat; details: 200 μM instead of the usual 100 μM; cited from earlier work
[4] = tested on: sorghum; details: acetosyringone alone used to induce vir gene expression; cited from earlier work

SMILES: COc1cc(C(C)=O)cc(OC)c1O [acetosyringone, 4-acetyl-2,6-dimethoxyphenol]
- effect on production of phenolic compounds [1]: depresses the production of phenolic compounds
- effect on transformation efficiency [2]: does not have any effect on transformation efficiency
- T-DNA transfer and transformation efficiency [3]: higher levels of T-DNA transfer and transformation efficiency
- Agrobacterium transformation efficiency [4]: very low
